According to ChEMBL document CHEMBL1275539 (2008):
Converted amounts (≈) assume the structure as drawn.

Assays:
Format in all cases: functional
Streptococcus pneumoniae [1] = assay: Antibacterial activity against amoxicillin-intermediate Streptococcus pneumoniae isolate by agar dilution method
Streptococcus pneumoniae [2] = assay: Antibacterial activity against penicillin-nonsusceptible Streptococcus pneumoniae isolate by agar dilution method
Streptococcus pneumoniae [3] = assay: Antibacterial activity against penicillin-susceptible Streptococcus pneumoniae assessed as percent susceptible isolates by agar dilution method
Streptococcus pneumoniae [4] = assay: Antibacterial activity against levofloxacin-resistant Streptococcus pneumoniae isolate by agar dilution method
Streptococcus pneumoniae [5] = assay: Antibacterial activity against cefotaxime-resistant Streptococcus pneumoniae assessed as percent susceptible isolates by agar dilution method
Streptococcus pneumoniae [6] = assay: Antibacterial activity against cefotaxime-intermediate Streptococcus pneumoniae assessed as percent susceptible isolates by agar dilution method
Streptococcus pneumoniae [7] = assay: Antibacterial activity against cefotaxime-resistant Streptococcus pneumoniae isolate by agar dilution method
Streptococcus pneumoniae [8] = assay: Antibacterial activity against cefotaxime-intermediate Streptococcus pneumoniae isolate by agar dilution method
Streptococcus pneumoniae [9] = assay: Antibacterial activity against erythromycin-resistant Streptococcus pneumoniae assessed as percent susceptible isolates by agar dilution method
Streptococcus pneumoniae [10] = assay: Antibacterial activity against penicillin-susceptible Streptococcus pneumoniae isolate by agar dilution method
Streptococcus pneumoniae [11] = assay: Antibacterial activity against amoxicillin-intermediate Streptococcus pneumoniae assessed as percent susceptible isolates by agar dilution method
Streptococcus pneumoniae [12] = assay: Antibacterial activity against levofloxacin-resistant Streptococcus pneumoniae assessed as percent susceptible isolates by agar dilution method
Streptococcus pneumoniae [13] = assay: Antibacterial activity against amoxicillin-resistant Streptococcus pneumoniae assessed as percent susceptible isolates by agar dilution method
Streptococcus pneumoniae [14] = assay: Antibacterial activity against penicillin-nonsusceptible Streptococcus pneumoniae assessed as percent susceptible isolates by agar dilution method
Streptococcus pneumoniae [15] = assay: Antibacterial activity against amoxicillin-resistant Streptococcus pneumoniae isolate by agar dilution method
Streptococcus pneumoniae [16] = assay: Antibacterial activity against erythromycin-resistant Streptococcus pneumoniae isolate by agar dilution method

Row | Structure (SMILES) | MIC50 (Streptococcus pneumoniae [1]) [µg/mL] | MIC90 (Streptococcus pneumoniae [1]) [µg/mL] | MIC50 (Streptococcus pneumoniae [2]) [µg/mL] | MIC90 (Streptococcus pneumoniae [2]) [µg/mL] | Activity (Streptococcus pneumoniae [3]) [%] | MIC50 (Streptococcus pneumoniae [4]) [µg/mL] | MIC90 (Streptococcus pneumoniae [4]) [µg/mL] | Activity (Streptococcus pneumoniae [6]) [%] | MIC50 (Streptococcus pneumoniae [7]) [µg/mL] | MIC90 (Streptococcus pneumoniae [7]) [µg/mL] | MIC50 (Streptococcus pneumoniae [8]) [µg/mL] | MIC90 (Streptococcus pneumoniae [8]) [µg/mL] | Activity (Streptococcus pneumoniae [9]) [%] | MIC50 (Streptococcus pneumoniae [10]) [µg/mL] | MIC90 (Streptococcus pneumoniae [10]) [µg/mL] | Activity (Streptococcus pneumoniae [11]) [%] | MIC50 (Streptococcus pneumoniae [15]) [µg/mL] | MIC90 (Streptococcus pneumoniae [15]) [µg/mL] | MIC50 (Streptococcus pneumoniae [16]) [µg/mL] | MIC90 (Streptococcus pneumoniae [16]) [µg/mL] | further results
1 | CO/N=C(\C(=O)N[C@@H]1C(=O)N2C(C(=O)[O-])=C(C[N+]3(C)CCCC3)CS[C@H]12)c1csc(N)n1 | 2 (≈ 4.16 µM) | 2 (≈ 4.16 µM) | 2 (≈ 4.16 µM) | 4 (≈ 8.32 µM) | 66.4 | 0.25 (≈ 0.52 µM) | 2 (≈ 4.16 µM) | 29.9 | 2 (≈ 4.16 µM) | 4 (≈ 8.32 µM) | 2 (≈ 4.16 µM) | 2 (≈ 4.16 µM) | 64.9 | 1 (≈ 2.08 µM) | 2 (≈ 4.16 µM) | 40 | 2 (≈ 4.16 µM) | 8 (≈ 16.6 µM) | 1 (≈ 2.08 µM) | 2 (≈ 4.16 µM) | Activity (Streptococcus pneumoniae [5]): 12.5%; Activity (Streptococcus pneumoniae [12]): 82.9%; Activity (Streptococcus pneumoniae [13]): 16.4%; Activity (Streptococcus pneumoniae [14]): 8.3%
2 | CC1(C)S[C@@H]2[C@H](NC(=O)[C@H](N)c3ccc(O)cc3)C(=O)N2[C@H]1C(=O)O [AMOXICILLIN] | 4 (≈ 10.9 µM) | 4 (≈ 10.9 µM) | 8 (≈ 21.9 µM) | ≥ 16 | 66.7 | ≤ 0.06 | 8 (≈ 21.9 µM) | 30.6 | 8 (≈ 21.9 µM) | 16 (≈ 43.8 µM) | 4 (≈ 10.9 µM) | 16 (≈ 43.8 µM) | 62.2 | 2 (≈ 5.47 µM) | 8 (≈ 21.9 µM) | 0 | 8 (≈ 21.9 µM) | 16 (≈ 43.8 µM) | 2 (≈ 5.47 µM) | 8 (≈ 21.9 µM) | Activity (Streptococcus pneumoniae [5]): 6.3%; Activity (Streptococcus pneumoniae [12]): 73.7%; Activity (Streptococcus pneumoniae [14]): 13.3%
3 | CC1(C)S[C@@H]2[C@H](NC(=O)[C@H](N)c3ccccc3)C(=O)N2[C@H]1C(=O)O [AMPICILLIN] | 4 (≈ 11.4 µM) | 8 (≈ 22.9 µM) | 8 (≈ 22.9 µM) | ≥ 16 | – | 0.12 (≈ 0.343 µM) | 8 (≈ 22.9 µM) | – | 8 (≈ 22.9 µM) | – | 8 (≈ 22.9 µM) | ≥ 16 | – | 2 (≈ 5.72 µM) | 8 (≈ 22.9 µM) | – | 8 (≈ 22.9 µM) | – | 4 (≈ 11.4 µM) | 8 (≈ 22.9 µM) | –
4 | CO/N=C(\C(=O)N[C@@H]1C(=O)N2C(C(=O)O)=C(COC(C)=O)CS[C@H]12)c1csc(N)n1 [CEFOTAXIME] | 1 (≈ 2.2 µM) | 2 (≈ 4.39 µM) | 2 (≈ 4.39 µM) | 4 (≈ 8.78 µM) | 80.7 | 0.06 (≈ 0.132 µM) | 1 (≈ 2.2 µM) | 0 | 4 (≈ 8.78 µM) | 8 (≈ 17.6 µM) | 2 (≈ 4.39 µM) | 2 (≈ 4.39 µM) | 77 | 1 (≈ 2.2 µM) | 2 (≈ 4.39 µM) | 62.4 | 2 (≈ 4.39 µM) | 2 (≈ 4.39 µM) | 1 (≈ 2.2 µM) | 2 (≈ 4.39 µM) | Activity (Streptococcus pneumoniae [13]): 49.7%; Activity (Streptococcus pneumoniae [14]): 25%
5 | CCO/N=C(\C(=O)N[C@@H]1C(=O)N2C(C(=O)[O-])=C(Sc3nc(-c4cc[n+](C)cc4)cs3)CS[C@H]12)c1nsc(NP(=O)(O)O)n1 [CEFTAROLINE FOSAMIL] | 0.12 (≈ 0.175 µM) | 0.25 (≈ 0.365 µM) | 0.12 (≈ 0.175 µM) | 0.25 (≈ 0.365 µM) | – | 0.03 (≈ 0.0438 µM) | 0.12 (≈ 0.175 µM) | – | 0.25 (≈ 0.365 µM) | 0.25 (≈ 0.365 µM) | 0.12 (≈ 0.175 µM) | 0.25 (≈ 0.365 µM) | – | 0.12 (≈ 0.175 µM) | 0.12 (≈ 0.175 µM) | – | 0.12 (≈ 0.175 µM) | 0.25 (≈ 0.365 µM) | 0.12 (≈ 0.175 µM) | 0.25 (≈ 0.365 µM) | –
